Assay results as given in patent US20240294541A1, “COMPOUNDS CONSTITUTING C20-MODIFIED SALINOMYCIN DERIVATIVES, A METHOD FOR OBTAINING THE SAME, A COMPOSITION CONTAINING THE SAME AND A USE OF SAID COMPOUNDS” (FILECLO SPOLKA Z OGRANICZONA ODPOWIEDZIALNOSCIA, priority 2021, published 2024).
Like-named read-outs stand apart in the source and are kept apart here.

How the values were obtained:
Assay type in all cases: cell-based
[1] = test system: NCI-H358 (human lung cancer); assay: cells; conditions: Table 4; for IC50: NCI-H358 human lung cancer cells, read-out: IC50 (nM) NCI-H358; for SI NCI-H358: selectivity coefficient vs normal BALB/3T3 fibroblasts
[2] = test system: SNU-16 (human gastric cancer); assay: cells; conditions: for SI SNU-16: selectivity coefficient vs normal BALB/3T3 fibroblasts
[3] = test system: PLC/PRF/5 (human liver cancer); assay: cells; conditions: for SI PLC/PRF/5: selectivity coefficient vs normal BALB/3T3 fibroblasts
[4] = test system: MIA PaCa-2 (human pancreatic cancer); assay: cells; conditions: for SI MIA PaCa-2: selectivity coefficient vs normal BALB/3T3 fibroblasts
[5] = test system: Hs294T (human melanoma); assay: cells; conditions: for IC50: Hs 294T; for SI Hs294T: selectivity coefficient vs normal BALB/3T3 fibroblasts
[6] = test system: cancer cells; assay: In vitro cytotoxic activity on the panel of cancer cell lines (MTT/SRB), general statements; conditions: Tables 3.1, 3.2, 4 and 5; parent compound salinomycin
[7] = test system: BALB/3T3 (normal mouse fibroblasts); assay: In vitro cytotoxicity, SRB assay, normal BALB/3T3 fibroblasts
[8] = test system: MV-4-11 (human biphenotypic leukaemia); assay: In vitro cytotoxicity, MTT assay, MV-4-11; conditions: for IC50: Homo sapiens, MV4-11, read-out: IC50 (nM) MV4-11
[9] = test system: A2780Cis (cisplatin-resistant human ovarian cancer); assay: In vitro cytotoxicity, SRB assay, A2780Cis; conditions: for IC50: Homo sapiens, A2780cis
[10] = test system: PFSK-1 (malignant primitive neuroectodermal tumour); assay: In vitro cytotoxicity, SRB assay, PFSK-1
[11] = test system: NCI-H23 (human lung cancer); assay: In vitro cytotoxicity, SRB assay, NCI-H23
[12] = test system: A2780 (human ovarian cancer); assay: In vitro cytotoxicity, SRB assay, A2780
[13] = test system: A375 (human melanoma); assay: In vitro cytotoxicity, SRB assay, A375
[14] = test system: KG-1 (human acute myeloid leukaemia); assay: In vitro cytotoxicity, MTT assay, KG-1
[15] = Table 4, SNU-16 human gastric cancer cells, read-out: IC50 (nM) SNU-16
[16] = Table 4, PLC/PRF/5 human liver cancer cells, read-out: IC50 (nM) PLC/PRF/5
[17] = Table 4, MIA PaCa-2 human pancreatic cancer cells, read-out: IC50 (nM) MIA PaCa-2
[18] = Table 4, Hs294T human melanoma cells, read-out: IC50 (nM) Hs294T
[19] = Table 4, BALB/3T3 normal mouse fibroblasts, read-out: IC50 (nM) BALB3T3 normal cells
[20] = selectivity coefficient vs normal BALB/3T3 cells

SMILES: CCCOC(=O)N[C@@H]1C=C[C@]2(O[C@H]([C@@H](CC)C(=O)[C@@H](C)[C@@H](O)[C@H](C)[C@@H]3O[C@@H]([C@@H](CC)C(=O)O)CC[C@@H]3C)[C@@H](C)C[C@H]2C)O[C@@]12CC[C@@](C)([C@H]1CC[C@](O)(CC)[C@H](C)O1)O2 [FLC-00424-1•Na]
- IC50 [1]: 48.7 nM
- IC50 [2, 15]: 220 nM
- IC50 [3, 16]: 5.01 nM
- IC50 [4, 17]: 38.4 nM
- IC50 [5, 18]: 685 nM
- anti-proliferative effect compared to that of the parent compound [6]: several times more potent compared to that of the parent compound

SMILES: CC[C@@H](C(=O)[C@@H](C)[C@@H](O)[C@H](C)[C@@H]1O[C@@H]([C@@H](CC)C(=O)O)CC[C@@H]1C)[C@H]1O[C@]2(C=C[C@@H](NC(=O)C(=O)NCCc3ccccc3)[C@]3(CC[C@@](C)([C@H]4CC[C@](O)(CC)[C@H](C)O4)O3)O2)[C@H](C)C[C@@H]1C [FLC-00457-1•Na]
- IC50 [1]: 446 nM
- SI NCI-H358 [1]: 1.65
- IC50 [2, 15]: 551 nM
- SI SNU-16 ([2]; Table 4): 1.3
- IC50 [3, 16]: 122 nM
- SI PLC/PRF/5 ([3]; Table 4): 6.0
- IC50 [7, 19]: 734 nM
- IC50 [4, 17]: 53.7 nM
- SI MIA PaCa-2 ([4]; Table 4): 13.7
- IC50 [5, 18]: 2530 nM
- SI Hs294T ([5]; Table 4): 0.3
- SI MV4-11 [8]: 40.7
- IC50 [8]: 18 nM
- anti-proliferative effect compared to that of the parent compound [6]: several times more potent compared to that of the parent compound
- SI A2780Cis [9]: 76.0
- IC50 ([9]; read-out: IC50 (nM) A2780Cis): 9.66 nM

SMILES: CC[C@@H](C(=O)[C@@H](C)[C@@H](O)[C@H](C)[C@@H]1O[C@@H]([C@@H](CC)C(=O)O)CC[C@@H]1C)[C@H]1O[C@]2(C=C[C@@H](NC(=O)OCC(F)F)[C@]3(CC[C@@](C)([C@H]4CC[C@](O)(CC)[C@H](C)O4)O3)O2)[C@H](C)C[C@@H]1C [FLC-00446-1•Na]
- IC50 [1]: 50.8 nM
- SI NCI-H358 [1]: 4.12
- IC50 [2, 15]: 262 nM
- SI SNU-16 ([2]; Table 4): 0.8
- IC50 [3, 16]: 37.9 nM
- SI PLC/PRF/5 ([3]; Table 4): 5.5
- IC50 [7, 19]: 209 nM
- IC50 [4, 17]: 26.8 nM
- SI MIA PaCa-2 ([4]; Table 4): 7.8
- IC50 [5, 18]: 189 nM
- SI Hs294T ([5]; Table 4): 1.1
- SI MV4-11 [8]: 298.7
- IC50 [8]: 0.7 nM
- anti-proliferative effect compared to that of the parent compound [6]: several times more potent compared to that of the parent compound
- SI A2780Cis [9]: 294.5
- IC50 ([9]; read-out: IC50 (nM) A2780Cis): 0.71 nM

SMILES: CC[C@@H](C(=O)[C@@H](C)[C@@H](O)[C@H](C)[C@@H]1O[C@@H]([C@@H](CC)C(=O)O)CC[C@@H]1C)[C@H]1O[C@]2(C=C[C@@H](NC(=S)Nc3ccc(C(F)(F)F)cc3)[C@]3(CC[C@@](C)([C@H]4CC[C@](O)(CC)[C@H](C)O4)O3)O2)[C@H](C)C[C@@H]1C [FLC-00347-1]
- IC50 ([2]; Homo sapiens, SNU-16, 72 h with compound, MTT, n/a = non-active compound, read-out: SNU-16 IC50): 13.5 nM
- SNU-16 SI [2, 20]: 5.4
- IC50 ([3]; Homo sapiens, PLC-PRF-5, 72 h with compound, SRB, n/a = non-active compound, read-out: PLC/PRF/5 IC50): 5.87 nM
- PLC/PRF/5 SI [3, 20]: 12.5
- IC50 ([10]; Homo sapiens, PFSK-1, 72 h with compound, SRB, n/a = non-active compound, read-out: PFSK-1 IC50): 4.54 nM
- PFSK-1 SI [10, 20]: 16.1
- IC50 ([11]; Homo sapiens, NCI-H23, 72 h with compound, SRB, n/a = non-active compound, read-out: NCI-H23 IC50): 5.51 nM
- NCI-H23 SI [11, 20]: 13.3
- IC50 ([7]; Mus musculus, BALB/3T3, normal cells, 72 h with compound, SRB, n/a = non-active compound, read-out: BALB/3T3 IC50): 73.2 nM
- IC50 ([12]; Homo sapiens, A2780, 72 h with compound, SRB, n/a = non-active compound, read-out: A2780 IC50): 0.93 nM
- A2780 SI [12, 20]: 79.0
- IC50 ([4]; Homo sapiens, MIA PaCa-2, 72 h with compound, SRB, n/a = non-active compound, read-out: MIA PaCa-2 IC50): 44.3 nM
- MIA PaCa-2 SI [4, 20]: 1.7
- IC50 ([5]; Homo sapiens, 72 h with compound, SRB, n/a = non-active compound, read-out: Hs294T IC50): 103 nM
- Hs294T SI [5, 20]: 0.7
- IC50 ([13]; Homo sapiens, A-375, 72 h with compound, SRB, n/a = non-active compound, read-out: A375 IC50): 91.2 nM
- A375 SI [13, 20]: 0.8
- IC50 ([14]; Homo sapiens, 72 h with compound, MTT, n/a = non-active compound): 14.1 nM
- KG-1 SI [14, 20]: 5.2
- anti-proliferative effect compared to that of the parent compound [6]: several times more potent compared to that of the parent compound
- A2780Cis RI [9]: 0.3
- A2780Cis SI [9]: 264.7
- IC50 ([9]; 72 h, read-out: A2780Cis IC50 (nM)): 0.28 nM
